# Source: patent publication US7749996B2, “Heterotricyclic metalloprotease inhibitors” (Alantos Pharmaceutical Holdings, Inc., priority 2006, dated 2010)
# Tests used:
# [1] = target: T1, catalytic domain of MMP-13 enzyme (Homo sapiens, UniProt P45452); test: Assay for determining MMP-13 inhibition (fluorescent substrate); type: biochemical; conditions: Table 1, activity group
# T1 construct: stock solution of catalytic domain of MMP-13 enzyme (produced by Alantos or commercially available from Invitek (Berlin), Cat.# 30100812); purchased Invitek (Berlin) 30100812
# Experimental: (§1) The typical assay for MMP-13 activity is carried out in assay buffer comprised of 50 mM Tris, pH 7.5, 150 mM NaCl, 5 mM CaCl2 and 0.05% Brij-35. Different concentrations of tested compounds are prepared in assay buffer in 50 μL aliquots. […] The mixture of enzyme and compound in assay buffer is thoroughly mixed and incubated for 10 min at room temperature. […] The time-dependent increase in fluorescence is measured at the 320 nm excitation and 390 nm emission by automatic plate multireader. The IC50 values are calculated from the initial reaction rates.
# activated MMP-8 enzyme = target: T2, activated MMP-8 enzyme (Homo sapiens, UniProt P22894); test: Assay for determining MMP-8 inhibition (fluorescent substrate); type: biochemical; conditions: Table 2, activity group
# T2 construct: purchased Calbiochem 444229
# T2 sequence (P22894 101-467): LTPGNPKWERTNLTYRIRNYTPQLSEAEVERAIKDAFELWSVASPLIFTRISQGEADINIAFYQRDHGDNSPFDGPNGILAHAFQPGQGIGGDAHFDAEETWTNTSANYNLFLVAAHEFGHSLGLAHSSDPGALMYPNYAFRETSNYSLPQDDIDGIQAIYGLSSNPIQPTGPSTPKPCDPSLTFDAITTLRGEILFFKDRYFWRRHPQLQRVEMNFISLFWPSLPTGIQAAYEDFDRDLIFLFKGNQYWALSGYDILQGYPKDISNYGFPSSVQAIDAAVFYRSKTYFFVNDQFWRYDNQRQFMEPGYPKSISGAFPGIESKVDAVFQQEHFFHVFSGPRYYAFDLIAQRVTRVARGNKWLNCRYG
# Experimental: as §1, with “MMP-8” for “MMP-13”, “37° C.” for “room temperature.”, “by an” for “by”, “multireader at 37° C.” for “multireader.”
SMILES,IC50 [1] [nM],IC50 (activated MMP-8 enzyme) [nM]
O=C1COc2cc(CNC(=O)c3nc4sc5ccccc5c4c(=O)[nH]3)ccc2N1 [2/24],100 to 20000,–
O=C1COc2ccc(CNC(=O)c3nc4sc5ccccc5c4c(=O)[nH]3)cc2N1 [2/25],< 100,< 250
CN1CCc2c(sc3nc(C(=O)NCc4ccc5c(c4)NC(=O)CO5)[nH]c(=O)c23)C1 [2/29],< 100,–
O=C1COc2ccc(CNC(=O)c3nc4sc5c(c4c(=O)[nH]3)CCCC5)cc2N1 [2/33],< 100,< 250
O=C1COc2cc(CNC(=O)c3nc4sc5c(c4c(=O)[nH]3)CCCC5)ccc2N1 [2/34],100 to 20000,–
Nc1c(N2CCc3ccc(CNC(=O)c4nc5sc6c(c5c(=O)[nH]4)CCC6)cc3C2)c(=O)c1=O [2/52],< 100,< 250
Nc1c(N2CCc3ccc(CNC(=O)c4nc5sc6ccccc6c5c(=O)[nH]4)cc3C2)c(=O)c1=O [2/67],< 100,–
O=C1COc2ccc(CNC(=O)c3nc4sc5c(c4c(=O)[nH]3)C3CCN5CC3)cc2N1 [2/89],< 100,–
Nc1c(N2CCc3ccc(CNC(=O)c4nc5sc6c(c5c(=O)[nH]4)C4CCN6CC4)cc3C2)c(=O)c1=O [2/90],< 100,–
CC(=O)N1CCc2c(sc3nc(C(=O)NCc4ccc5c(c4)NC(=O)CO5)[nH]c(=O)c23)C1 [2/94],< 100,< 250
CCOC(=O)C1CCc2sc3nc(C(=O)NCc4ccc5c(c4)NC(=O)CO5)[nH]c(=O)c3c21 (stereo not shown) [2/113],< 100,< 250
CCOC(=O)C1CCc2sc3nc(C(=O)NCc4ccc5c(c4)CN(c4c(N)c(=O)c4=O)CC5)[nH]c(=O)c3c21 (stereo not shown) [2/114],< 100,< 250
O=C1COc2ccc(CNC(=O)c3nc4sc5c(c4c(=O)[nH]3)CCCCC5)cc2N1 [2/117],< 100,< 250
Nc1c(N2CCc3ccc(CNC(=O)c4nc5sc6c(c5c(=O)[nH]4)CCCCC6)cc3C2)c(=O)c1=O [2/118],< 100,< 250
O=C1COc2ccc(CNC(=O)c3nc4sc5c(c4c(=O)[nH]3)CCCS5)cc2N1 [2/119],< 100,–
Nc1c(N2CCc3ccc(CNC(=O)c4nc5sc6c(c5c(=O)[nH]4)CCCS6)cc3C2)c(=O)c1=O [2/120],< 100,–
O=C1COc2ccc(CNC(=O)c3nc4sc5c(c4c(=O)[nH]3)CCS5)cc2N1 [2/121],< 100,< 250
Nc1c(N2CCc3ccc(CNC(=O)c4nc5sc6c(c5c(=O)[nH]4)CCS6)cc3C2)c(=O)c1=O [2/122],< 100,< 250
O=C1COc2ccc(CNC(=O)c3nc4sc5c(c4c(=O)[nH]3)CCCCCC5)cc2N1 [2/125],< 100,< 250
Nc1c(N2CCc3ccc(CNC(=O)c4nc5sc6c(c5c(=O)[nH]4)CCCCCC6)cc3C2)c(=O)c1=O [2/126],< 100,< 250

SMILES,IC50 [1] [nM],IC50 (activated MMP-8 enzyme) [nM]
COc1cccc(CNC(=O)c2nc3sc4c(c3c(=O)[nH]2)CCS(=O)(=O)C4)c1 [2/129],< 100,250 to 20000
Cc1cc(CNC(=O)c2nc3sc4c(c3c(=O)[nH]2)CCS(=O)(=O)C4)ccc1F [2/130],100 to 20000,250 to 20000
CC1SCc2sc3nc(C(=O)NCc4ccc5c(c4)NC(=O)CO5)[nH]c(=O)c3c21 (stereo not shown) [2/131],< 100,< 250
CC(C)(C)c1ccc2c(c1)sc1nc(C(=O)NCc3ccc4c(c3)NC(=O)CO4)[nH]c(=O)c12 [2/143],100 to 20000,–
CC(C)(C)c1ccc2c(c1)sc1nc(C(=O)NCc3ccc4c(c3)CN(c3c(N)c(=O)c3=O)CC4)[nH]c(=O)c12 [2/144],100 to 20000,–
O=C1COc2ccc(CNC(=O)c3nc4sc5c(c4c(=O)[nH]3)CCC(c3ccccc3)C5)cc2N1 (stereo not shown) [2/145],< 100,–
Nc1c(N2CCc3ccc(CNC(=O)c4nc5sc6c(c5c(=O)[nH]4)CCC(c4ccccc4)C6)cc3C2)c(=O)c1=O (stereo not shown) [2/146],100 to 20000,–
O=C1COc2ccc(CNC(=O)c3nc4sc5c(c4c(=O)[nH]3)CCOC5)cc2N1 [2/152],< 100,< 250
Nc1c(N2CCc3ccc(CNC(=O)c4nc5sc6c(c5c(=O)[nH]4)CCOC6)cc3C2)c(=O)c1=O [2/153],< 100,< 250
O=C1COc2ccc(CNC(=O)c3nc4sc5c(c4c(=O)[nH]3)C(C(=O)NCc3ccccc3)CC5)cc2N1 (stereo not shown) [2/167],< 100,< 250
COC(=O)c1ccc(CNC(=O)C2CCc3sc4nc(C(=O)NCc5ccc6c(c5)NC(=O)CO6)[nH]c(=O)c4c32)cc1 (stereo not shown) [2/169],< 100,< 250
CS(=O)(=O)c1ccc(CNC(=O)C2CCc3sc4nc(C(=O)NCc5ccc6c(c5)NC(=O)CO6)[nH]c(=O)c4c32)cc1 (stereo not shown) [2/170],< 100,< 250
CN(C)C(=O)C1CCc2sc3nc(C(=O)NCc4ccc5c(c4)NC(=O)CO5)[nH]c(=O)c3c21 (stereo not shown) [2/173],< 100,250 to 20000
Cc1ccc(CNC(=O)C2CCc3sc4nc(C(=O)NCc5ccc6c(c5)NC(=O)CO6)[nH]c(=O)c4c32)cc1 (stereo not shown) [2/174],< 100,< 250
Nc1c(N2CCc3ccc(CNC(=O)c4nc5sc6c(c5c(=O)[nH]4)CCCSC6)cc3C2)c(=O)c1=O [2/219],< 100,–
C#CCNC(=O)C1CCc2sc3nc(C(=O)NCc4ccc5c(c4)NC(=O)CO5)[nH]c(=O)c3c21 (stereo not shown) [2/223],–,< 250
COC(=O)C1Cc2sc3nc(C(=O)NCc4ccc5c(c4)CN(c4c(N)c(=O)c4=O)CC5)[nH]c(=O)c3c2C1 (stereo not shown) [2/230],–,< 250
O=C1COc2ccc(CNC(=O)c3nc4cc5c(cc4c(=O)[nH]3)CCC5)cc2N1 [2/246],< 100,–
CCNC(=O)CC1CCCc2sc3nc(C(=O)NCc4ccc5c(c4)NC(=O)CO5)[nH]c(=O)c3c21 (stereo not shown) [2/269],–,< 250

# Continued, values first:
IC50 [1] [nM],IC50 (activated MMP-8 enzyme) [nM],SMILES
100 to 20000,–,O=C(NCC1CC1)c1nc2sc3c(c2c(=O)[nH]1)CCC3 [2/291]
100 to 20000,–,CC(C)NC(=O)c1nc2sc3c(c2c(=O)[nH]1)CCC3 [2/294]
100 to 20000,–,CS(=O)(=O)c1ccc(CNC(=O)c2nc3sc4c(c3c(=O)[nH]2)CCC4)cc1 [2/302]
100 to 20000,–,O=C(c1nc2sc3c(c2c(=O)[nH]1)CCC3)N1CC[C@H]2CCCC[C@@H]2C1 [2/305]
100 to 20000,–,COC(=O)C1SCCN1C(=O)c1nc2sc3c(c2c(=O)[nH]1)CCC3 (stereo not shown) [2/307]
< 100,–,O=C(NCc1cccnc1)c1nc2sc3c(c2c(=O)[nH]1)CCC3 [2/309]
100 to 20000,–,C[C@@H](NC(=O)c1nc2sc3c(c2c(=O)[nH]1)CCC3)c1ccc(F)cc1 [2/319]
100 to 20000,–,NC(=O)[C@@H]1CCC[C@@H]1NC(=O)c1nc2sc3c(c2c(=O)[nH]1)CCC3 [2/323]
100 to 20000,–,NC(=O)[C@@H](NC(=O)c1nc2sc3c(c2c(=O)[nH]1)CCC3)c1ccccc1 [2/327]
100 to 20000,–,O=C(NC(c1ccccc1)c1ccccn1)c1nc2sc3c(c2c(=O)[nH]1)CCC3 (stereo not shown) [2/328]
< 100,–,O=C(NCc1ccc(F)c(OC(F)(F)F)c1)c1nc2sc3c(c2c(=O)[nH]1)CCC3 [2/332]
100 to 20000,–,O=C(NCc1csc2ccccc12)c1nc2sc3c(c2c(=O)[nH]1)CCC3 [2/333]
100 to 20000,–,O=C(NCc1ccsc1)c1nc2sc3c(c2c(=O)[nH]1)CCC3 [2/344]
100 to 20000,–,O=C(CCc1ccc2sccc2c1)c1nc2sc3c(c2c(=O)[nH]1)CCC3 [2/352]
< 100,–,O=C(NCc1ccc2occc2c1)c1nc2sc3c(c2c(=O)[nH]1)CCC3 [2/354]
100 to 20000,–,O=C(NCc1ccc(CN2CCOCC2)cc1)c1nc2sc3c(c2c(=O)[nH]1)CCC3 [2/355]
< 100,–,O=C(NCc1cccc(N2CCOCC2)c1)c1nc2sc3c(c2c(=O)[nH]1)CCC3 [2/359]
< 100,–,NS(=O)(=O)c1ccc(CNC(=O)c2nc3sc4c(c3c(=O)[nH]2)CCC4)s1 [2/367]
100 to 20000,–,O=C(NCc1ccc(C(F)(F)F)nc1)c1nc2sc3c(c2c(=O)[nH]1)CCC3 [2/368]
–,250 to 20000,O=C(NCc1ccc2c(c1)OCO2)c1nc2sc3c(c2c(=O)[nH]1)CCC3 [2/382]
–,250 to 20000,COc1cccc(CNC(=O)c2nc3sc4c(c3c(=O)[nH]2)CCC4)c1 [2/387]
< 100,–,COC(=O)C1(CNC(=O)c2nc3sc4c(c3c(=O)[nH]2)CCC4)CCCCC1 [2/526]
–,250 to 20000,O=C(NCc1cccc(N2CCOCC2)c1)c1nc2sc3c(c2c(=O)[nH]1)CCC3 [2/529]
100 to 20000,–,NS(=O)(=O)c1ccc(CCNC(=O)c2nc3sc4c(c3c(=O)[nH]2)CCC4)cc1 [2/530]
–,250 to 20000,O=C1COc2ccc(CNC(=O)c3nc4sc5c(c4c(=O)[nH]3)CCNCC5)cc2N1 [15/3]
< 100,–,O=C1COc2ccc(CNC(=O)c3nc4sc5c(c4c(=O)[nH]3)CCCNC5)cc2N1 [15/4]
< 100,–,O=C1COc2ccc(CNC(=O)c3nc4sc5c(c4c(=O)[nH]3)CNCC5)cc2N1 [15/5]
–,< 250,O=C1COc2ccc(CNC(=O)c3nc4sc5c(c4c(=O)[nH]3)CCCSC5)cc2N1 [Example 2/218]
–,250 to 20000,CC(=O)N1Cc2sc3nc(C(=O)NCc4ccc5c(c4)NC(=O)CO5)[nH]c(=O)c3c2C1 [Example 42]
–,< 250,O=C1COc2ccc(CNC(=O)c3nc4sc5c(c4c(=O)[nH]3)CN(Cc3ccccc3)C5)cc2N1 [Example 43/1]
